Activity calls are given as the source filed them. The rule behind the calls is not given here.
What was measured:
[1] = The compound was evaluated for the affinity towards PGE-2 receptor
[2] = target: Prostacyclin receptor (Homo sapiens) (UniProt P43119); experiment: The compound was evaluated for the affinity towards Prostaglandin I2 receptor
[3] = Concentration required for the inhibition of blood platelet aggregation induced by ADP; assay type: functional
[4] = target: Prostacyclin receptor (Homo sapiens) (UniProt P43119); experiment: The compound was evaluated for the affinity towards Prostaglandin I2 receptor; not parallel
[5] = The compound was evaluated for the affinity towards PGE-2 receptor; no competition
[6] = target: T1, Prostaglandin D2 receptor (Homo sapiens) (UniProt Q13258); experiment: The compound was evaluated for the affinity towards PGD-2 receptor
T1 sequence (whole entry): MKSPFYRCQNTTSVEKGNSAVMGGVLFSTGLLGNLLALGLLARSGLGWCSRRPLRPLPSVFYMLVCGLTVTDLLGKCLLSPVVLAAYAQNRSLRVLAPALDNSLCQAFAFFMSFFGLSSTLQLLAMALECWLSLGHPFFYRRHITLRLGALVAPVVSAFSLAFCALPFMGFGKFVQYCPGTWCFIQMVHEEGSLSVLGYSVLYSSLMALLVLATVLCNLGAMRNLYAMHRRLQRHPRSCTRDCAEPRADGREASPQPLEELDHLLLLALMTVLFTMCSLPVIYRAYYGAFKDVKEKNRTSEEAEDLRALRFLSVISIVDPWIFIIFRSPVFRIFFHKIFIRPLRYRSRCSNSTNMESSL

[7] = target: Prostacyclin receptor (Homo sapiens) (UniProt P43119); experiment: The compound was evaluated for the affinity towards Prostaglandin I2 receptor; no competition

Sequence of Prostacyclin receptor (Homo sapiens) (P43119 whole entry): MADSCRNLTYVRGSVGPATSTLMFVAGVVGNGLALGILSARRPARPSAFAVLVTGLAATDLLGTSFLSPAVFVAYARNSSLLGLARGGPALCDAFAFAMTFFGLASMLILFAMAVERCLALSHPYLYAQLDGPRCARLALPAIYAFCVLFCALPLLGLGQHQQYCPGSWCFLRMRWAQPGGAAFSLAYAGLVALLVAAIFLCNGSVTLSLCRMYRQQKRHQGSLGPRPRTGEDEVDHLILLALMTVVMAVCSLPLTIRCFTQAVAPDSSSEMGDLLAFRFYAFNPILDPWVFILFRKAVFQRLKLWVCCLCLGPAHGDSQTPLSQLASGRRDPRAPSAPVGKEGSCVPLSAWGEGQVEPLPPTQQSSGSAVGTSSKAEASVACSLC

Compound | KF [1] | KF [2] | IC50 [3] [nM] | KF [4] | KF [5] | KF [6] | KF [7]
CCC#CC[C@H](C)[C@H](O)C#C[C@H]1[C@H](O)CC(=O)[C@@H]1CC(=O)CCCCC(=O)O | 7.5 | 5 | 0.09 |  |  |  | 
CC#CC[C@H](C)[C@H](O)/C=C/[C@@H]1[C@@H](CC(=O)CCCCC(=O)O)[C@H](F)C[C@H]1O |  |  | 100 | 200 |  |  | 
CCCCC[C@H](O)/C=C/[C@H]1[C@H](O)CC(=O)[C@@H]1CC(=O)CCCCC(=O)O | 7.1 | 129 | 7 |  |  |  | 
O=C(O)CCCCC(=O)C[C@H]1C(=O)C[C@@H](O)[C@@H]1/C=C/[C@@H](O)C1CCCCC1 |  | 58 | 3 |  | inactive | 70 | 
CC#CC[C@H](C)[C@H](O)/C=C/[C@@H]1[C@@H](CC(=O)CCCCC(=O)O)[C@@H](F)C[C@H]1O |  |  | 1000 |  |  |  | inactive
CC#CC[C@H](C)[C@H](O)/C=C/[C@H]1[C@H](O)CC(=O)[C@@H]1CC(=O)CCCCC(=O)O | 40 |  | 1 | 40 |  |  | 
CCC#CC[C@H](C)[C@H](O)C#C[C@@H]1[C@@H](CC(=O)CCCCC(=O)O)[C@H](F)C[C@H]1O | 700 |  | 20 | 32 |  |  | 
CC#CCC(C)[C@H](O)/C=C/[C@H]1[C@H](O)CC(=O)[C@@H]1CC(=O)CCCCC(=O)O (some centres undefined) | 140 | 60 | 1.6 |  |  | 600 | 

— ChEMBL document CHEMBL1151021, “Synthesis of potent 6-oxo and 9-fluoro-PGE1-derivatives and their biological properties” (Bioorg Med Chem Lett, 1992)
